Here are results for four compounds from paper PMC9699003, “Arene Variation of Highly Cytotoxic Tridentate Naphthoquinone-Based Ruthenium(II) Complexes and In-Depth In Vitro Studies” (Pharmaceutics, 2022).

The subject of test [1] is SW480 cells. Description: Cell cycle distribution (PI staining, flow cytometry). The class given is cell-based, human. Particulars: SW480, 24 h. The procedure:
(§1) For the flow-cytometric determination of cell cycle distribution, CH1/PA-1 (8 × 10^4 cells/well) and SW480 (1.2 × 10^5 cells/well) cells were seeded into 12-well plates (CytoOne, tissue culture treated) in 1 mL supplemented MEM. In the first 24 h, the cells were allowed to settle and resume exponential growth. […] Gemcitabine (Sigma-Aldrich, 0.01 and 0.05 µM) and etoposide (Sigma-Aldrich, 0.25, 0.5 and 1 µM) were used as positive controls. After removal of the treatment medium, cells were washed with 1 mL PBS and trypsinized. Cells were collected in Eppendorf tubes and centrifuged (300 g, 3 min), and the supernatant was discarded. In the following step, cells were washed with 1 mL PBS and resuspended in 500 µL PI/HFS buffer (0.1% v/v Triton X-100, 0.1% w/v sodium citrate, in PBS) containing 25 µg/mL propidium iodide (PI, 1.0 mg/mL, Sigma-Aldrich). The staining was carried out overnight at 4 °C in the dark, and 200 µL of the cell suspension was loaded into 96-well round bottom plates (Falcon). Samples were measured with a Millipore Guava easyCyte 8HT flow cytometer with GuavaSoft™ software in the InCyte-modus, and 10,000 events/sample were detected. Data were analyzed with FlowJo software v 10.8.1 (Tree Star, Ashland, OR, USA) using Watson algorithm. Percentages of cells in the three cell cycle phases (G1/G0, S and G2/M) were calculated by integrating the resulting histograms of fluorescence signals (Figures S29 and S30). Experiments were repeated at least three times. For statistical evaluation, an unpaired t-test with Welch’s correction was performed by using GraphPad PRISM software.
A general note: In flow cytometry, cells or beads pass a laser one at a time.

The subject of test [2] is CH1/PA-1 cells. The description is as above. Format: cell-based, human. Particulars: CH1/PA-1, 24 h. Here is the method: as §1
Test [3] relates to SW480 cells. Briefly: Colony formation assay. The class given is cell-based, human. Particulars: SW480, 11 days, relative to untreated control. Here is the method: For the colony formation assay, SW480 cells were seeded at a density of 350 cells/2 mL into each well of 6-well plates (CytoOne, tissue culture treated) and left to adhere for 24 h. To determine the long-term effects of the test compounds, the cells were exposed to them for 11 days at 37 °C and 5% CO2. After incubation, the wells were gently washed with 1 mL cold PBS and the colonies were fixed with 1 mL cold (4 °C) 100% methanol (Thermo Fisher, Waltham, MA, USA) for 30 min at 4 °C and washed with 1 mL PBS again. The fixed colonies were stained with 1 mL of 0.5% w/v crystal violet (Sigma-Aldrich) in methanol for 2 min and the plates were washed under tap water. After drying the plates, images of the wells were captured, and colonies were counted with the colony counting function of Fusion Fx7 software (Vilber Lourmat, Collégien, France). Results were normalized to untreated controls. Data are averaged from at least three independent experiments.

Test [4] has as its system pUC19 plasmid. Briefly: DNA interaction assay (dsDNA plasmid, agarose gel electrophoresis). The class given is biochemical. Particulars: 50 µM; for open circular (oc) form of pUC19 (single-strand breaks): 37 °C, after 6 h of incubation, control after 6 h 3.6 ± 0.7%; for Influence on pUC19 (in words): up to 6 h. Here is the method: The incubation was performed at 37 °C for different time intervals (15 min to 6 h) with continuous shaking. Additionally, 4 µL aliquots of a 6× DNA loading dye (Thermo Fisher) were added to the 20 µL reaction solution, and the DNA samples were separated in a 1% agarose gel in 1 × Tris-Borate-EDTA (TBE) buffer. Electrophoresis was initiated at 60 V for 5 min and continued at 120 V for 90 min in 1 × TBE buffer. For visualization of the DNA modification degree, the agarose gel was stained with ethidium bromide (EtBr) in 1 × TBE (0.75 µg/mL) for 20 min.

The target of test [5] is T1, NQO1 (SW480 cells) (Homo sapiens, UniProt P15559).
T1 construct: impact on NQO1 activity in SW480 (left panel) and CH1/PA-1 (right panel) cell extracts after treatment; endogenous in cells; host or cells: SW480 colon carcinoma cells (ATCC)
T1 sequence (P15559 whole entry): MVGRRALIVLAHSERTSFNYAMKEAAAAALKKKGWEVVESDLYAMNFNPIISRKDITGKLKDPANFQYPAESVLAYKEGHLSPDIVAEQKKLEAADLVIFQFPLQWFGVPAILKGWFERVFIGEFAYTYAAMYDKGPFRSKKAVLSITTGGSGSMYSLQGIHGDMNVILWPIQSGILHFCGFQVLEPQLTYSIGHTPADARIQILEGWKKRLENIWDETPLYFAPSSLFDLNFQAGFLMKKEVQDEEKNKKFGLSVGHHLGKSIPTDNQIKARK
Description: NQO1 activity assay in cell extracts after treatment. Format: cell-based. Particulars: SW480, 24 h treatment. Here is the method: To determine NQO1 activity, SW480 and CH1/PA-1 cells were seeded into 6-well plates in densities of 2 × 10^5 cells/well in 2 mL supplemented MEM. […] The test substances were dissolved in DMSO/medium. To exclude that assay validity was compromised by the use of DMSO, cells treated with DMSO alone (at concentrations corresponding to those in substance solutions) were measured in parallel. After 24 h drug exposure, the medium was aspirated, and the cells were gently washed twice with PBS. The further steps were performed following the manual instructions of the NQO1 activity assay kit (ab184867, abcam, Cambridge, UK). Protease inhibitor phenylmethylsulfonyl fluoride (PMSF, Merck, Darmstadt, Germany) and phosphatase inhibitor PhosSTOP^TM (Roche, Basel, Switzerland) were applied. For determining the protein concentration, the Micro BCA^TM protein assay (prod # 23235, Thermo Scientific) kit was used. For NQO1 activity determination, 100 µg/mL of total protein was loaded. The development of yellow color was monitored for 5 min in 20-sec intervals with a microplate reader (BioTek ELx808) at 450 nm. The measured data were evaluated according to the instructions of the NQO1 activity assay kit: “NQO1 activity was calculated by subtracting the OD value with Inhibitor from the one without Inhibitor. The activity is expressed as the change in absorbance per minute per amount of sample loaded into the well” [30]. Data are expressed as rates of increase of mean absorbance ± SDs from three independent experiments.

Consider `CC1=C([O-])C([O-])(n2cccn2)c2ccccc2C1=O.Cc1ccccc1.[Ru+2]` (racemic) [Compound 3], for which the “Cells in G1/G0 phase” value in test [1] (1.25 µM) came to 28.4 ± 7.8%; in test [1] (2.5 µM), 17.6 ± 4.5%; in test [1] (5 µM) it was 20.4 ± 5.9%; in test [2] (100 µM), 25.8 ± 4.6%; in test [2] (150 µM) it was 23.1 ±7.0%; in test [2] (200 µM), 24.9 ± 5.8%. Further, the “Cells in G2/M phase” value in test [1] (1.25 µM) is 35.1 ± 1.8%; in test [1] (2.5 µM), 43.1 ± 7.6%; in test [1] (5 µM) it was 28.2 ± 5.6%; in test [2] (100 µM) it was 40.1 ± 2.7%; in test [2] (150 µM) it was 36.9 ± 1.5%; in test [2] (200 µM), 40.3 ± 2.6%. In addition, the “Cells in S phase” value amounted to 38.2 ± 7.1% in test [1] (1.25 µM); 43.3 ± 7.4% in test [1] (2.5 µM); 54.1 ± 3.2% in test [1] (5 µM); 38.6 ± 1.5% in test [2] (100 µM); 40.8 ± 0.6% in test [2] (150 µM); 36.4 ± 1.2% in test [2] (200 µM). For the same compound, the Number of colonies in test [3] (1.25 µM) came to 53 ± 8%; in test [3] (2.5 µM), 23 ± 8%; in test [3] (5 µM), 4.3 ± 3.7%. Moreover, the “open circular (oc) form of pUC19 (single-strand breaks)” value in test [4] is listed as 11.7 ± 1.6%.

As for `CC1=C([O-])C([O-])(n2cccn2)c2ccccc2C1=O.[Ru+2].c1ccc2c(c1)CCC2` (racemic) [Compound 4], the “Cells in G1/G0 phase” value in test [1] (0.31 µM) amounted to 24.7 ± 9.2%; in test [1] (0.63 µM), 19.0 ± 4.6%; in test [1] (1.25 µM), 20.7 ± 5.3%; in test [2] (50 µM), 25.1 ± 4.7%; in test [2] (100 µM), 23.9 ± 4.7%; in test [2] (200 µM), 24.5 ± 3.8%. The “Cells in G2/M phase” value is reported as 36.1 ± 3.0% in test [1] (0.31 µM); 45.8 ± 4.2% in test [1] (0.63 µM); 25.0 ± 5.8% in test [1] (1.25 µM); 39.8 ± 2.9% in test [2] (50 µM); 42.2 ± 4.7% in test [2] (100 µM); 40.0 ± 3.8% in test [2] (200 µM). In addition, the “Cells in S phase” value in test [1] (0.31 µM) was determined as 42.1 ± 7.1%; in test [1] (0.63 µM), 42.0 ± 3.5%; in test [1] (1.25 µM) it was 57.1 ± 4.5%; in test [2] (50 µM) it was 38.4 ± 1.7%; in test [2] (100 µM), 38.3 ± 2.3%; in test [2] (200 µM) it was 39.1 ± 3.9%. Moreover, the Number of colonies in test [3] (0.31 µM) worked out at 22 ± 5%; in test [3] (0.63 µM) it was 5.1 ± 2.1%; in test [3] (1.25 µM), 0.82 ± 0.85%. The “Effect on NQO1 activity (in words)” value in test [5] (10 µM) is reported as “moderate suppression of enzyme activity”. In addition, in test [4], the “open circular (oc) form of pUC19 (single-strand breaks)” value is listed as 12.1 ± 1.9%.

For `CC1=C([O-])C([O-])(n2cccn2)c2ccccc2C1=O.[Ru+2].c1ccc(-c2ccccc2)cc1` (racemic) [Compound 5], the “Cells in G1/G0 phase” value in test [1] (0.039 µM) worked out at 32.3 ± 12.9%; in test [1] (0.078 µM), 19.5 ± 4.3%; in test [1] (0.16 µM), 15.5 ± 1.3%; in test [2] (12.5 µM), 20.1 ± 5.0%; in test [2] (25 µM), 19.2 ± 4.8%; in test [2] (50 µM) it was 17.5 ± 1.8%. The “Cells in G2/M phase” value came to 30.5 ± 6.2% in test [1] (0.039 µM); 35.9 ± 3.5% in test [1] (0.078 µM); 27.4 ± 1.3% in test [1] (0.16 µM); 39.1 ± 5.4% in test [2] (12.5 µM); 46.7 ± 1.9% in test [2] (25 µM); 46.8 ± 1.8% in test [2] (50 µM). Moreover, the “Cells in S phase” value in test [1] (0.039 µM) stood at 38.8 ± 7.2%; in test [1] (0.078 µM) it was 46.9 ± 7.7%; in test [1] (0.16 µM) it was 57.1 ± 0.1%; in test [2] (12.5 µM), 43.1 ± 6.3%; in test [2] (25 µM) it was 38.0 ± 4.0%; in test [2] (50 µM) it was 39.3 ± 1.4%. Moreover, the results for the Number of colonies in test [3] (0.039 µM), in test [3] (0.078 µM) and in test [3] (0.16 µM) were 19 ± 7%, 4.0 ± 2.0% and 0.22 ± 0.48%, respectively. In addition, the “Effect on NQO1 activity (in words)” value in test [5] (0.1 µM and 1 µM, compared to untreated control) is given as “negligible effects”; in test [5] (10 µM) it was “lowered NQO1 activity tremendously”. Also, in test [4], the “Influence on pUC19 (in words)” value is “only a minor influence on pUC19”.

For the compound `CC1=C([O-])C([O-])(n2cccn2)c2ccccc2C1=O.Cc1c(C)c(C)c(C)c(C)c1C.[Ru+2]` (stereo not shown) [Compound 6], the “Cells in G1/G0 phase” value in test [1] (0.16 µM) is on record as 23.2 ± 4.1%; in test [1] (0.31 µM) it was 15.0 ± 3.8%; in test [1] (0.63 µM), 24.2 ± 2.0%; in test [2] (25 µM) it was 25.1 ± 2.5%; in test [2] (50 µM), 22.8 ± 4.7%; in test [2] (75 µM) it was 25.6 ± 3.5%. Further, the “Cells in G2/M phase” value in test [1] (0.16 µM) is recorded as 35.7 ± 0.7%; in test [1] (0.31 µM), 32.6 ± 4.7%; in test [1] (0.63 µM), 25.6 ± 4.5%; in test [2] (25 µM) it was 44.2 ± 7.1%; in test [2] (50 µM), 40.8 ± 2.5%; in test [2] (75 µM) it was 38.4 ± 3.7%. For the same compound, the “Cells in S phase” value is 43.7 ± 4.8% in test [1] (0.16 µM); 53.7 ± 4.9% in test [1] (0.31 µM); 53.5 ± 2.6% in test [1] (0.63 µM); 35.0 ± 0.9% in test [2] (25 µM); 38.6 ± 4.2% in test [2] (50 µM); 39.4 ± 2.5% in test [2] (75 µM). The Number of colonies was found to be 28 ± 12% in test [3] (0.16 µM), 9.2 ± 3.2% in test [3] (0.31 µM) and 1.2 ± 1.1% in test [3] (0.63 µM). The “Influence on pUC19 (in words)” value in test [4] is “only a minor influence on pUC19”.
